Measurements as given in PubChem BioAssay AID248 (DTP/NCI, 2004).
Inconclusive results and toxic doses are left out. Rule as the data show it: active = T/C of 150% or more; inactive = T/C below 125%. Square brackets hold non-standard residues; d marks the D form. Peptide text beside a SMILES is read from it. ξ: configuration not given here. ξE = NC(CCC(=O)O)C(=O)O

System: L1210 leukemia ip in BDF1 mice, survival T/C
Assay: NCI In Vivo Anticancer Drug Screen. Data for tumor model L1210 Leukemia (intraperitoneal) in B6D2F1 (BDF1) mice
Conditions: endpoint: mean survival time, higher = longer survival
In short: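 Survival endpoint. Drug-treated group vs vehicle group, expressed as T divided by C. Tumor passaged by transplantation.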

[1] = dose: 100.0 mg/kg/injection, schedule: Q01DX009 (ip), vehicle: saline with Tween-80
[2] = dose: 100.0 mg/kg/injection, schedule: Q04DX002 (ip), vehicle: saline with Tween-80
[3] = dose: 200.0 mg/kg/injection, schedule: Q01DX009 (ip), vehicle: saline with Tween-80
[4] = dose: 200.0 mg/kg/injection, schedule: Q04DX002 (ip), vehicle: saline with Tween-80
[5] = dose: 100.0 mg/kg/injection, schedule: Q01DX009 (ip), vehicle: Klucel (hydroxypropylcellulose) (HPC)
[6] = dose: 100.0 mg/kg/injection, schedule: Q04DX003 (ip), vehicle: Klucel (hydroxypropylcellulose) (HPC)
[7] = dose: 200.0 mg/kg/injection, schedule: Q04DX003 (ip), vehicle: Klucel (hydroxypropylcellulose) (HPC)
[8] = dose: 400.0 mg/kg/injection, schedule: Q04DX003 (ip), vehicle: Klucel (hydroxypropylcellulose) (HPC)
[9] = dose: 50.0 mg/kg/injection, schedule: Q01DX001 (ip), vehicle: carboxymethylcellulose (CMC)
[10] = dose: 100.0 mg/kg/injection, schedule: Q01DX001 (ip), vehicle: carboxymethylcellulose (CMC)
[11] = dose: 100.0 mg/kg/injection, schedule: Q04DX003 (ip), vehicle: saline
[12] = dose: 200.0 mg/kg/injection, schedule: Q01DX001 (ip), vehicle: carboxymethylcellulose (CMC)
[13] = dose: 200.0 mg/kg/injection, schedule: Q04DX003 (ip), vehicle: saline
[14] = dose: 400.0 mg/kg/injection, schedule: Q01DX001 (ip), vehicle: carboxymethylcellulose (CMC)
[15] = dose: 400.0 mg/kg/injection, schedule: Q04DX003 (ip), vehicle: saline
[16] = dose: 200.0 mg/kg/injection, schedule: Q01DX009 (ip), vehicle: Klucel (hydroxypropylcellulose) (HPC)

Measured: T/C

CCOC(=O)c1c(O)c(=O)[nH]c2ccccc12
inactive: [1] 97 % of control | [2] 101 % of control | [3] 108 % of control | [4] 118 % of control | dose: 400.0 mg/kg/injection, schedule: Q01DX009 (ip), vehicle: saline with Tween-80 101 % of control | dose: 400.0 mg/kg/injection, schedule: Q04DX002 (ip), vehicle: saline with Tween-80 97 % of control

COc1cc(OC)c(NC(=S)Nc2ccc([N+](=O)[O-])cc2)cc1Cl
inactive: dose: 50.0 mg/kg/injection, schedule: Q01DX009 (ip), vehicle: saline with Tween-80 92 % of control | [1] 88 % of control | [3] 90 % of control

c1ccc(N=Nc2ccnnc2)cc1
inactive: dose: 50.0 mg/kg/injection, schedule: Q04DX002 (ip), vehicle: saline with Tween-80 102 % of control | [2] 91 % of control | [4] 105 % of control

O=S(=O)(c1ccccc1)C1CC1(c1ccccc1)c1ccccc1 (configuration not stated)
inactive: dose: 100.0 mg/kg/injection, schedule: Q01DX001 (ip), vehicle: saline 92 % of control | dose: 200.0 mg/kg/injection, schedule: Q01DX001 (ip), vehicle: saline 93 % of control | dose: 400.0 mg/kg/injection, schedule: Q01DX001 (ip), vehicle: saline 90 % of control

O=C1CC(Cl)C(=O)N1c1ccccc1 (configuration not stated)
inactive: dose: 75.0 mg/kg/injection, schedule: Q01DX009 (ip), vehicle: saline with Tween-80 112 % of control | dose: 75.0 mg/kg/injection, schedule: Q04DX003 (ip), vehicle: saline with Tween-80 96 % of control | dose: 150.0 mg/kg/injection, schedule: Q01DX009 (ip), vehicle: saline with Tween-80 102 % of control | dose: 150.0 mg/kg/injection, schedule: Q04DX003 (ip), vehicle: saline with Tween-80 102 % of control | dose: 300.0 mg/kg/injection, schedule: Q04DX003 (ip), vehicle: saline with Tween-80 101 % of control

NC(CCC(=O)O)C(=O)NCC(=O)O (configuration not stated) (H-[ξE]-Gly-OH)
inactive: dose: 12.5 mg/kg/injection, schedule: Q04DX002 (ip), vehicle: saline 96 % of control | dose: 25.0 mg/kg/injection, schedule: Q04DX002 (ip), vehicle: saline 102 % of control | dose: 50.0 mg/kg/injection, schedule: Q04DX002 (ip), vehicle: saline 90 % of control

Cc1cccc(NC(=O)Nc2cccc3ccccc23)c1C
inactive: dose: 25.0 mg/kg/injection, schedule: Q01DX009 (ip), vehicle: Klucel (hydroxypropylcellulose) (HPC) 92 % of control | dose: 25.0 mg/kg/injection, schedule: Q04DX003 (ip), vehicle: Klucel (hydroxypropylcellulose) (HPC) 94 % of control | dose: 50.0 mg/kg/injection, schedule: Q01DX009 (ip), vehicle: Klucel (hydroxypropylcellulose) (HPC) 96 % of control | dose: 50.0 mg/kg/injection, schedule: Q04DX003 (ip), vehicle: Klucel (hydroxypropylcellulose) (HPC) 89 % of control | [5] 92 % of control | [6] 91 % of control | [7] 93 % of control | [8] 91 % of control

CCOC(=O)NC(N)=O
inactive: [9] 92 % of control | dose: 75.0 mg/kg/injection, schedule: Q01DX009 (ip), vehicle: saline 100 % of control | [10] 97 % of control | [6] 110 % of control | [11] 107 % of control | dose: 150.0 mg/kg/injection, schedule: Q01DX009 (ip), vehicle: saline 103 % of control | [12] 95 % of control | [7] 98 % of control | [13] 98 % of control | dose: 300.0 mg/kg/injection, schedule: Q01DX009 (ip), vehicle: saline 100 % of control | [14] 92 % of control | [8] 98 % of control | [15] 102 % of control

COc1ccccc1NC(=O)c1cc2ccccc2cc1O
inactive: dose: 100.0 mg/kg/injection, schedule: Q01DX009 (ip), vehicle: saline 109 % of control | [11] 100 % of control | dose: 200.0 mg/kg/injection, schedule: Q01DX009 (ip), vehicle: saline 104 % of control | [13] 100 % of control | dose: 400.0 mg/kg/injection, schedule: Q01DX009 (ip), vehicle: saline 100 % of control | [15] 98 % of control

Nc1ccc2c(c1)C(O)c1cc(N)c(Br)cc1-2 (configuration not stated)
inactive: [10] 103 % of control | [12] 110 % of control | [14] 103 % of control

Cc1ccc(NC2CNC(=O)NC2=O)cc1C (configuration not stated)
inactive: dose: 100.0 mg/kg/injection, schedule: Q01DX Z (ip), vehicle: saline 91 % of control | dose: 200.0 mg/kg/injection, schedule: Q01DX Z (ip), vehicle: saline 87 % of control

CC(=O)N(N=O)c1ccc(N(N=O)C(C)=O)cc1
inactive: dose: 5.0 mg/kg/injection, schedule: Q01DX001 (ip), vehicle: saline 106 % of control | dose: 10.0 mg/kg/injection, schedule: Q01DX001 (ip), vehicle: saline 97 % of control | dose: 20.0 mg/kg/injection, schedule: Q01DX001 (ip), vehicle: saline 112 % of control

O=C1c2ccccc2C(=Cc2c3ccccc3cc3ccccc23)c2ccccc21
inactive: dose: 25.0 mg/kg/injection, schedule: Q04DX002 (ip), vehicle: Klucel (hydroxypropylcellulose) (HPC) 97 % of control | dose: 50.0 mg/kg/injection, schedule: Q04DX002 (ip), vehicle: Klucel (hydroxypropylcellulose) (HPC) 106 % of control | dose: 100.0 mg/kg/injection, schedule: Q04DX002 (ip), vehicle: Klucel (hydroxypropylcellulose) (HPC) 94 % of control

O=C(Nc1cccc2ccccc12)c1ccc(Cl)c(Cl)c1
inactive: [5] 104 % of control | [16] 100 % of control | dose: 400.0 mg/kg/injection, schedule: Q01DX009 (ip), vehicle: Klucel (hydroxypropylcellulose) (HPC) 98 % of control

COC(C)(C)CN(CCCNC(=S)Nc1ccccc1)C(=S)Nc1ccccc1
inactive: [9] 103 % of control | [10] 97 % of control | [12] 86 % of control | [14] 93 % of control

CC(=O)n1c(N)nc2ccccc21
inactive: [5] 103 % of control | [16] 102 % of control

O=C(CSc1cc(Cl)ccc1Cl)Nc1ccc(Cl)cc1Cl
inactive: dose: 100.0 mg/kg/injection, schedule: Q04DX003 (ip), vehicle: carboxymethylcellulose (CMC) 92 % of control | dose: 200.0 mg/kg/injection, schedule: Q04DX003 (ip), vehicle: carboxymethylcellulose (CMC) 95 % of control
